# Assay results as given in patent US10577378B2, “EIF4A-inhibiting compounds and methods related thereto” (eFFECTOR Therapeutics, Inc., priority 2015, dated 2020).
# Tested on: MDA-MB-231 human breast cancer cells
# Test: Cell proliferation assay (CellTiter-Glo, 72 hours treatment)
# Type: cell-based
# Settings: Homo sapiens; MDA-MB-231 cells, 72 hours at 37° C., CellTiter-Glo; read-out: MDA-MB-231 cell proliferation assay (IC50)
# How it was run: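 MDA-MB-231 cells seeded at 2,500 cells/well, treated next day with compound or DMSO vehicle for 72 h at 37 °C. Proliferation read by CellTiter-Glo; IC50 from sigmoidal non-linear regression, binned as +++ (<100 nM), ++ (100–1000 nM), + (>1000 nM).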
row,SMILES,IC50
1,"COc1cncc2c1[C@]1(O)[C@H](O)[C@H](C(=O)NCC(F)(F)F)[C@@H](c3ccccc3)[C@]1(c1ccc(Br)cc1)O2 (racemic) [90F, Rac-(4bS,5R,6R,7S,7aR)-7a-(4-bromophenyl)-4b,5-dihydroxy-4-methoxy-7-phenyl-N-(2,2,2-trifluoroethyl)-4b,6,7,7a-tetrahydro-5H-cyclopenta[4,5]furo[2,3-c]pyridine-6-carboxamide]",< 0.1 µM
2,"O[C@@H]1C(F)(F)[C@@H](c2ccccc2)[C@]2(c3ccc(Br)cc3)Oc3cc(Cl)cnc3[C@]12O (racemic) [91F, Rac-(5aR,6S,8S,8aS)-5a-(4-bromophenyl)-3-chloro-7,7-difluoro-6-phenyl-5a,6,7,8-tetrahydro-8aH-cyclopenta[4,5]furo[3,2-b]pyridine-8,8a-diol]",> 1 µM
3,"O[C@@H]1C2(CC2)[C@@H](c2ccccc2)[C@]2(c3ccc(Br)cc3)Oc3cc(Cl)cnc3[C@]12O (racemic) [92F, Rac-(5aR,6R,8R,8aS)-5a-(4-bromophenyl)-3-chloro-6-phenyl-5a,6-dihydrospiro[cyclopenta[4,5]furo[3,2-b]pyridine-7,1′-cyclopropane]-8,8a(8H)-diol]",> 1 µM
4,"O=S(=O)(Cc1ccccc1)[C@H]1[C@@H](O)[C@@]2(O)c3ncc(Cl)cc3O[C@@]2(c2ccc(Br)cc2)[C@@H]1c1ccccc1 (racemic) [93F, Rac-(5aR,6S,7R,8S,8aS)-7-(benzylsulfonyl)-5a-(4-bromophenyl)-3-chloro-6-phenyl-5a,6,7,8-tetrahydro-8aH-cyclopenta[4,5]furo[3,2-b]pyridine-8,8a-diol]",> 1 µM
5,"N#Cc1ccc([C@@]23Oc4cc(Cl)cnc4[C@]2(O)[C@H](O)[C@H](S(=O)(=O)Cc2ccccc2)[C@H]3c2ccccc2)cc1 (racemic) [94F, Rac-4-((5aR,6S,7R,8S,8aS)-7-(benzylsulfonyl)-3-chloro-8,8a-dihydroxy-6-phenyl-6,7,8,8a-tetrahydro-5aH-cyclopenta[4,5]furo[3,2-b]pyridin-5a-yl)benzonitrile]",> 1 µM
6,"CN(C)C(=O)[C@H]1[C@@H](O)[C@@]2(O)c3c(C#N)cncc3O[C@@]2(c2ccc(C#N)cc2)[C@@H]1c1ccccc1 (racemic) [96F, Rac-(4bS,5R,6R,7S,7aR)-4-cyano-7a-(4-cyanophenyl)-4b,5-dihydroxy-N,N-dimethyl-7-phenyl-4b,6,7,7a-tetrahydro-5H-cyclopenta[4,5]furo[2,3-c]pyridine-6-carboxamide]",> 1 µM
7,"CN(C)C(=O)[C@H]1[C@@H](O)[C@@]2(O)c3c(Cl)cncc3O[C@@]2(c2ccc(Br)cc2)[C@@H]1c1ccccc1 (racemic) [97F, Rac-(4bS,5R,6R,7S,7aR)-7a-(4-bromophenyl)-4-chloro-4b,5-dihydroxy-N,N-dimethyl-7-phenyl-4b,6,7,7a-tetrahydro-5H-cyclopenta[4,5]furo[2,3-c]pyridine-6-carboxamide]",0.1 to 1 µM
8,"COc1ccc(Cn2cc3c(n2)[C@]2(O)[C@H](O)[C@H](C(=O)N(C)C)[C@@H](c4ccccc4)[C@]2(c2ccc(C#N)cc2)O3)cc1 (racemic) [99F, Rac-(4aR,5S,6R,7R,7aS)-4a-(4-cyanophenyl)-7,7a-dihydroxy-2-(4-methoxybenzyl)-N,N-dimethyl-5-phenyl-2,4a,5,6,7,7a-hexahydrocyclopenta[4,5]furo[3,2-c]pyrazole-6-carboxamide]",> 1 µM
9,"CN(C)C(=O)[C@H]1[C@@H](O)[C@@]2(O)c3n[nH]cc3O[C@@]2(c2ccc(C#N)cc2)[C@@H]1c1ccccc1 (racemic) [100F, rac-(4aR,5S,6R,7R,7aS)-4a-(4-cyanophenyl)-7,7a-dihydroxy-N,N-dimethyl-5-phenyl-2,4a,5,6,7,7a-hexahydrocyclopenta[4,5]furo[3,2-c]pyrazole-6-carboxamide]",> 1 µM
10,"COc1cncc2c1[C@]1(O)[C@H](O)[C@H](S(C)(=O)=O)[C@@H](c3ccccc3)[C@]1(c1ccc(Br)cc1)O2 (racemic) [101F, rac-(4bS,5S,6R,7S,7aR)-7a-(4-bromophenyl)-4-methoxy-6-(methylsulfonyl)-7-phenyl-5,6,7,7a-tetrahydro-4bH-cyclopenta[4,5]furo[2,3-c]pyridine-4b,5-diol]",0.1 to 1 µM
11,"COc1cncc2c1[C@]1(O)[C@H](O)[C@H](C(=O)N(C)CC(F)F)[C@@H](c3ccccc3)[C@]1(c1ccc(Br)cc1)O2 (racemic) [111F, Rac-(4bS,5R,6R,7S,7aR)-7a-(4-bromophenyl)-N-(2,2-difluoroethyl)-4b,5-dihydroxy-4-methoxy-N-methyl-7-phenyl-4b,6,7,7a-tetrahydro-5H-cyclopenta[4,5]furo[2,3-c]pyridine-6-carboxamide]",< 0.1 µM
12,"COc1cncc2c1[C@]1(O)[C@H](O)[C@H](C(=O)N3[C@@H]4CCC[C@H]3CC4)[C@@H](c3ccccc3)[C@]1(c1ccc(Br)cc1)O2 (racemic) [114F, Rac-((1R,5S)-8-azabicyclo[3.2.1]octan-8-yl)((4bS,5R,6R,7S,7aR)-7a-(4-bromophenyl)-4b,5-dihydroxy-4-methoxy-7-phenyl-4b,6,7,7a-tetrahydro-5H-cyclopenta[4,5]furo[2,3-c]pyridin-6-yl)methanone]",< 0.1 µM
13,"COc1cncc2c1[C@]1(O)[C@H](O)[C@H](C(=O)NCC(F)F)[C@@H](c3ccccc3)[C@]1(c1ccc(Br)cc1)O2 (racemic) [116F, Rac-(4bS,5R,6R,7S,7aR)-7a-(4-bromophenyl)-N-(2,2-difluoroethyl)-4b,5-dihydroxy-4-methoxy-7-phenyl-4b,6,7,7a-tetrahydro-5H-cyclopenta[4,5]furo[2,3-c]pyridine-6-carboxamide]",< 0.1 µM
14,"COc1cncc2c1[C@]1(O)[C@H](O)[C@H](S(=O)(=O)CC(F)(F)F)[C@@H](c3ccccc3)[C@]1(c1ccc(Br)cc1)O2 (racemic) [117F, Rac-(4bS,5S,6R,7S,7aR)-7a-(4-bromophenyl)-4-methoxy-7-phenyl-6-((2,2,2-trifluoroethyl)sulfonyl)-5,6,7,7a-tetrahydro-4bH-cyclopenta[4,5]furo[2,3-c]pyridine-4b,5-diol]",> 1 µM
15,"COc1cncc2c1[C@]1(O)[C@H](O)[C@H](S(=O)(=O)c3ccccc3)[C@@H](c3ccccc3)[C@]1(c1ccc(C#N)cc1)O2 (racemic) [118F, Rac-4-((4bS,5S,6R,7S,7aR)-4b,5-dihydroxy-4-methoxy-7-phenyl-6-(phenylsulfonyl)-4b,5,6,7-tetrahydro-7aH-cyclopenta[4,5]furo[2,3-c]pyridin-7a-yl)benzonitrile]",0.1 to 1 µM
16,"COc1cncc2c1[C@]1(O)[C@H](O)[C@H](S(=O)(=O)c3ccccn3)[C@@H](c3ccccc3)[C@]1(c1ccc(C#N)cc1)O2 (racemic) [119F, Rac-4-((4bS,5S,6R,7S,7aR)-4b,5-dihydroxy-4-methoxy-7-phenyl-6-(pyridin-2-ylsulfonyl)-4b,5,6,7-tetrahydro-7aH-cyclopenta[4,5]furo[2,3-c]pyridin-7a-yl)benzonitrile]",0.1 to 1 µM
17,"COc1cncc2c1[C@]1(O)[C@H](O)[C@H](C(=O)N3CC(F)(F)C3)[C@@H](c3ccccc3)[C@]1(c1ccc(Br)cc1)O2 (racemic) [121F, Rac-((4bS,5R,6R,7S,7aR)-7a-(4-bromophenyl)-4b,5-dihydroxy-4-methoxy-7-phenyl-4b,6,7,7a-tetrahydro-5H-cyclopenta[4,5]furo[2,3-c]pyridin-6-yl)(3,3-difluoroazetidin-1-yl)methanone]",0.1 to 1 µM
